In patent US11608367B2, “Peptides for angiogenic therapy” (The Regents of the University of California, priority 2018, dated 2023):

What was measured:
[1] = test system: cancer, cardiac and neuronal cell lines; assay: Categorisation of active ADPs as pro-/anti-apoptotic (Example 15); conditions: criteria of Example 15
[2] = test system: cancer, cardiac and neuronal cell lines; assay: as above; conditions: depending on cell type
Source text: 2) improved cell viability in cardiac or neuronal cell lines and decreased viability in at least 2 cancer cell lines.

[3] = Effectiveness of ADPs (Example 1, Table 6; cell death assays of FIGS. 10-13); type: cell-based; conditions: ADPs with N-terminal tumor penetrating peptide and C-terminal fluorescent tag; graded in words
Source text: FIGS. 10A-C show the sequences mapped, peptide blots, imaging to show expression and cell death assays for these three peptides. A) PPA-1 (PEPTIDE23) (SEQ ID NO:23), B) PPA4 (PEPTIDE19) (SEQ ID NO:19), C) PPA10 (PEPTIDE16 including FF at C-terminus) (SEQ ID NO:16).
FIGS. 11A-B show the sequences mapped, peptide blots, imaging to show expression and cell death assays for these HSP-70 peptides. A) PHA4 (PEPTIDE5) (SEQ ID NO:5), B) PHA5 (PEPTIDE13 plus C-terminal L) (SEQ IDS NO: 13).
FIGS. 12A-C show the sequences mapped, peptide blots, imaging to show expression and cell death assays for these p65 (RELA) peptides. A) PRA1 (PEPTIDE14) (SEQ ID NO:14), B) PRA8 (PEPTIDE8) (SEQ ID NO:8), C) PRA9 (SEQ ID Nos:33 and 37-45).
FIGS. 13A-D show the sequences mapped, peptide blots, imaging to show expression and cell death assays for these HSP-70 peptides. A) PAA1-1 (PEPTIDE11) (SEQ ID NO:11), B) PPA1-3 (PEPTIDE15) (SEQ ID NO:15), C) PAR1 (PEPTIDE19), D) Paint 1 (PEPTIDE7) (SEQ ID NO:7).
ADPs were first identified using Peptide SPOT analysis. Peptides were identified from AKIP1. PKAc, HSP-70 and p65 sequences. The identified ADPs were attached at the N-terminus to tumor penetrating peptide based on the CENDR rule (FIG. 9). A fluorescent tag was attached to the C-terminus for ease of visualization.
To test these ADPs, CRISPR based AKIP1 knock-out cell lines were generated in HEK 293 and glioblastoma cell lines. Further, all the isoforms of AKIP1 were reintroduced into the AKIP1 knock-out glioblastoma cell lines.

U87-MG cells = assay: Caspase-Glo 3/7 apoptotic assay; type: cell-based, human; conditions: cut-off value at 20 over scrambled control with P Value <0.05%
Protocol: Caspase-Glo® 3/7 assays (Promega) were performed according to the manufacturer's protocol. Briefly, 15,000-20,000 cells were seeded in a 96 well white flat bottom plate. The peptide constructs were transfected in triplicates using Lipofectamine 3000. Twenty four hour post-transfection, the cells were equilibrated at room temperature and Caspase-Glo® 3/7 reagent was dispensed into each well and the luminescent signal was measured 30-60 mins incubation at room temperature. The blank reaction was used to measure background luminescence associated with the cell culture system and Caspase-Glo® 3/7 Reagent alone. The value for the blank reaction was subtracted from experimental values to obtain the relative luminescence values (RLU). The percentage change over the Scrambled control was calculated from the mean as follows: [(Mean peptide RLU-Mean Scr RLU)/Scr RLU*100]. The P value was calculated using the Student t Test.
The efficacy of the 25 disclosed peptides to cause apoptosis in the U87-MG cells was measured using Caspase-Glo® 3/7 Assay. For each of the peptides, the percentage change over the scrambled control was tabulated and a cut-off value at 20 with a P Value of <0.05%.

## RKDRKKTSLGPGGSYQISEHAPEASQP [PEPTIDE2]
[1]
  Pro-apoptotic (anti-angiogenic) category: Pro-apoptotic (anti-angiogenic)

## VKKRDLEQAISQRIQTNNNPFQVPIEEQRGDYDLNAVR [PEPTIDE8]
[2]
  both pro and anti-apoptotic effect: both pro and anti-apoptotic effect
[1]
  Pro-apoptotic (anti-angiogenic) category: Pro-apoptotic (anti-angiogenic)
  anti-apoptotic (pro-angiogenic) category: anti-apoptotic (pro-angiogenic)
[3]
  Effectiveness: Moderate

## STDPAVFTDLASVDNSEFQQLLNQG [PEPTIDE25]
U87-MG cells
  apoptosis in U87-MG cells (in words): very low apoptosis

## SHFSEHTALWDRSMKEFLAKAKEDFLKK [PEPTIDE10]
[2]
  both pro and anti-apoptotic effect: both pro and anti-apoptotic effect
[1]
  Pro-apoptotic (anti-angiogenic) category: Pro-apoptotic (anti-angiogenic)
  anti-apoptotic (pro-angiogenic) category: anti-apoptotic (pro-angiogenic)

## DWWALGVLIYEMAAGYPP [PEPTIDE17]
[1]
  Pro-apoptotic (anti-angiogenic) category: Pro-apoptotic (anti-angiogenic)

## REERPPTLSASFRTMAEFMDYTSSQCG [PEPTIDE1]
[1]
  Pro-apoptotic (anti-angiogenic) category: Pro-apoptotic (anti-angiogenic)

## IMQDKLEKERNDAKNAVEEYVYEMRDKLSGEYEKFVSEDDRNSFTLKLEDTENWLY [PEPTIDE13]
[1]
  Pro-apoptotic (anti-angiogenic) category: Pro-apoptotic (anti-angiogenic)

## VTVGSNDLTKKTHVVAVDSGQSVDLVFPV [PEPTIDE4]
[2]
  both pro and anti-apoptotic effect: both pro and anti-apoptotic effect
[1]
  Pro-apoptotic (anti-angiogenic) category: Pro-apoptotic (anti-angiogenic)
  anti-apoptotic (pro-angiogenic) category: anti-apoptotic (pro-angiogenic)

## GGSYQISEHAPEASQPAENISKDLYIEVYPGTYS [PEPTIDE7]
[1]
  Pro-apoptotic (anti-angiogenic) category: Pro-apoptotic (anti-angiogenic)
[3]
  Effectiveness: Low

## KYYSSVPEEGGATHVYRYHRGESKLHM [PEPTIDE9]
[1]
  Pro-apoptotic (anti-angiogenic) category: Pro-apoptotic (anti-angiogenic)
[3]
  Effectiveness: High

## LNGVDRRSLQRSARLALEVLERAK [PEPTIDE11]
[2]
  both pro and anti-apoptotic effect: both pro and anti-apoptotic effect
[1]
  Pro-apoptotic (anti-angiogenic) category: Pro-apoptotic (anti-angiogenic)
  anti-apoptotic (pro-angiogenic) category: anti-apoptotic (pro-angiogenic)
[3]
  Effectiveness: High

## DIGNGQRKDRKKTSLGPGGSYQISEHA [PEPTIDE5]
[1]
  Pro-apoptotic (anti-angiogenic) category: Pro-apoptotic (anti-angiogenic)
[3]
  Effectiveness: High

## FTDLASVONSEFQQLLNQ (FTDLASVDNSEFQQLLNQ) [PEPTIDE24]
U87-MG cells
  apoptosis in U87-MG cells (in words): very low apoptosis

## RRAVDWHALERPKGCMGVLAREAPHLEKQPAAGPQRVLPGE [PEPTIDE3]
[1]
  Pro-apoptotic (anti-angiogenic) category: Pro-apoptotic (anti-angiogenic)

## DNCLAAAALNGVDRRSLQRSAKLALEVLERAKRR [PAint]
[3]
  Effectiveness: Moderate

## DNCLAAAALNGVDRRSLQRSARLALEVLERAKR [PEPTIDE12]
[1]
  anti-apoptotic (pro-angiogenic) category: anti-apoptotic (pro-angiogenic)

## VKKRDLEQAISQRIQTNNN [PEPTIDE18]
[1]
  Pro-apoptotic (anti-angiogenic) category: Pro-apoptotic (anti-angiogenic)

## IMQDKLEKERNDAKNAVEEYVYEMRDKLSGEYEKFVSEDDRNSFTLKLEDTENWL [PHA 5, PEPTIDE13 without the C-terminal Y]
[3]
  Effectiveness: High

## PLIFPAEPAQASGPYVEIIEQPKQ [PEPTIDE14]
[1]
  Pro-apoptotic (anti-angiogenic) category: Pro-apoptotic (anti-angiogenic)
[3]
  Effectiveness: High
